Data as given in PMC5989455, “Beta-defensin derived cationic antimicrobial peptides with potent killing activity against gram negative and gram positive bacteria” (BMC Microbiology, 2018).
Bridges are numbered along the chain shown (N, C = ends). Where no end group is shown, it is not given here.

Assays:
S. aureus (ATCC 29213) = assay type: cell-based, Staphylococcus aureus; settings: ATCC 29213, 24 h
Method: (§1) Pseudomonas aeruginosa (P. aeruginosa, ATCC 27853) and Staphylococcus aureus (S. aureus, ATCC 29213) were used to evaluate the novel CAMPs’ antimicrobial activity, salt- and protease-resistance, and membrane permeability. Ten multiple-drug resistant P. aeruginosa and ten methicillin-resistant S. pseudintermedius (MRSP) clinical isolates (Table 2) were used to evaluate the antimicrobial efficacy of CAMPs. The clinical isolates were cultured from diagnostic specimens by the microbiology staff at the University of Missouri Veterinary Medical Diagnostic Laboratory as part of standard service. The isolates were donated to the present project with appropriate permission. All bacterial strains were maintained and grown in Luria-Bertani broth or agar (LB, BD Difco™) at 37 °C as described previously.
(§2) Minimum inhibitory concentrations (MICs) were determined primarily based on the guidelines of the Clinical and Laboratory Standards Institute (CLSI). The Muller Hinton (MH) II broth used in MIC assay contained 20–25 mg/L of calcium and 10–12.5 mg/L of magnesium. The procedures were described in previous studies. In brief, two-fold serially diluted CAMPs (2 to 256 μg/ml) were mixed with appropriate bacterial strains at a final concentration of 5 × 10^5 CFU/ml in a 96-well microtiter plate (Nunc™, Thermo Fisher Scientific). Following incubation at 37 °C for 24 h, MIC was recorded. All assays were conducted in triplicate.

mouse red blood cells = assay type: cell-based
Method: The hemolytic assay was performed as described previously. Briefly, mouse red blood cells (RBCs, Innovative Research, Novi, MI) were washed three times with phosphate-buffered saline (PBS, pH 7.4), centrifuged at 1000×g for 10 min, and resuspended in PBS to 10% (v/v). The RBCs were treated with CAMPs at various concentrations ranging from 4 to 512 μg/ml (2-fold serial dilutions) at 37 °C for 1 h. PBS and 0.2% Triton X-100 were used as negative and positive controls, respectively. The supernatant was transferred to a 96-well flat-bottomed polystyrene plate (Thermo Fisher Scientific), and the amount of hemoglobin released into the supernatant was determined by measuring the absorbance with a spectrophotometer at 540 nm. Hemolytic activity was expressed as the percentage of hemolysis and calculated using the following equation: hemolysis (%) = (As-A0)/(A100-A0) × 100, where As is the absorbance of the sample, A100 is the absorbance of completely lysed RBCs in 0.2% Triton X-100, and A0 is the absorbance in the complete absence of hemolysis (PBS treatment). The assay was performed in triplicate. The therapeutic index (T.I.) was calculated according to a previously published formula: T.I. = MHC / MICGM [30]. […] The MICGM was the minimum inhibitory concentration of the peptide concentrations against bacterial growth after the geometric mean was calculated. […]

[1] = tested on: Gram-positive bacteria (S. aureus, S. pseudintermedius); experiment: Average MIC for Gram-positive bacteria; assay type: cell-based, Staphylococcus spp.; settings: average over S. aureus ATCC 29213 and 10 MRSP strains (Gram-positive), ± SD
Method: as §2
The hemolytic assay was performed as described previously. […] The supernatant was transferred to a 96-well flat-bottomed polystyrene plate (Thermo Fisher Scientific), and the amount of hemoglobin released into the supernatant was determined by measuring the absorbance with a spectrophotometer at 540 nm. Hemolytic activity was expressed as the percentage of hemolysis and calculated using the following equation: hemolysis (%) = (As-A0)/(A100-A0) × 100, where As is the absorbance of the sample, A100 is the absorbance of completely lysed RBCs in 0.2% Triton X-100, and A0 is the absorbance in the complete absence of hemolysis (PBS treatment). […] The therapeutic index (T.I.) was calculated according to a previously published formula: T.I. = MHC / MICGM [30]. […]

P. aeruginosa = assay type: cell-based, Pseudomonas aeruginosa
Method: as §1
as §2, with “All assays were conducted in triplicate.” left out

## Ac-LRRLKPLIRPWLRPLRRWWW-NH2 [CAMP-A]
S. aureus (ATCC 29213)
  MIC: 32 µg/mL
Mouse red blood cells
  concentration exhibiting hemolytic and cytotoxic activities: ≥ 128 µg/mL

## Ac-PIHRRIPPRWPRLKRRW-NH2 [CAMP-t2]
S. aureus (ATCC 29213)
  MIC: 64 µg/mL

## Ac-RKFLRRRGEVAHFSQKSLGLYCWWW-NH2 [CAMP-t1]
S. aureus (ATCC 29213)
  MIC: 64 µg/mL

## Ac-RRRWRKRRWWW-NH2 [CAMP-B]
S. aureus (ATCC 29213)
  MIC: 32 µg/mL

## SPIHACRYQRGVCIPGPCRWPYYRVGSCGSGLKSCCVRNRWA (disulfide 6-35, 13-28, 18-36 (inferred)) [AvBD-6, reference compound]
[1]
  MICAverage G+: ≥256 µg/mL
P. aeruginosa; 24 h
  MIC: > 256 µg/mL
P. aeruginosa; average over 11 P. aeruginosa strains (Gram-negative), ± SD
  MICAverage G-: > 256 µg/mL
